Laboratory results taken from patent US12459951B2, “Compounds that interact with RAS superfamily proteins for treatment of cancers, inflammatory diseases, rasopathies, and fibrotic disease” (SHY Therapeutics, LLC, priority 2022, dated 2025).
Counter-ions that a name gives are not always drawn.

Assays:
[1] = test system: TNF-alpha; assay: TNF-alpha Quantification Assay (ELISA), LPS-stimulated RAW 264.7; type: cell-based; settings: Mus musculus, RAW264.7; at 10 μM; read-out: TNFα: % inh.
[2] = test system: Akt phosphorylation; assay: Akt Phosphorylation Assay (western blot), Panc-1; type: cell-based, human; settings: at 10 μM, * = activation
Outline: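 Phospho-Akt (Ser473) was measured by western blot in lysates of KRas G12D Panc-1 cells exposed to test compound for 6 h at 37 °C, either at 10 μM final with 0.3% DMSO or as serial dilutions for IC50. One format used overnight 0.5% FBS starvation followed by a 15 min pulse of 1.5 ng/ml EGF. The other used cells in 10% FBS with no stimulation.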

[3] = test system: IL6; assay: IL-6 Quantification Assay (ELISA), LPS-stimulated RAW 264.7; type: cell-based; parameters: inhibition: dose or concentration left out as unconfirmed; settings: Mus musculus, RAW264.7; read-out: IL-6: % inh.
[4] = biological target: T1, Rac-1 (Homo sapiens, UniProt P63000); assay: Ras GTP Binding Domain Inhibition Assay (Ras Superfamily Assay); settings: read-out: Rac-1: % inh.
T1 construct: made in house
Outline: (§1)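 His-tagged GTPases immobilised on nickel-coated plates, pre-incubated with compound (20 μM single point, or serial dilution for IC50) 3 h at room temperature, with or without 10-30 μg/mL Sos (residues 556-1049) in the final hour. Bound Cy3- or Cy5-GTP (100 nM, 45 min) measured by fluorescence after washing.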

[5] = test system: KRas wild type; assay: as above; settings: for KRas wild type + SOS: % inh.: with SOS; for KRas wild type: % inh.: without SOS
Outline: as §1

[6] = test system: KRas G12D mutant; assay: as above; settings: for KRas G12D mutant + SOS: % inh.: with SOS; for KRas G12D mutant: % inh.: without SOS
Outline: as §1

COCc1noc(Nc2nc(-c3nccn3C)nn3cc(-c4ccn(C(C)C)n4)c(C)c23)n1 [Compound 82, N-(6-(1-Isopropyl-1H-pyrazol-3-yl)-5-methyl-2-(1-methyl-1H-imidazol-2-yl)pyrrolo[2,1-f][1,2,4]triazin-4-yl)-3-(methoxymethyl)-1,2,4-oxadiazol-5-amine]
inhibition at 10 µM [1]: 25 to 49% | % inh of Akt phosphorylation in Panc-1 [2]: D* (85-100% activation) | inhibition [3]: 75 to 100% | inhibition at 20 µM [4]: 26 to 49% | KRas wild type + SOS: % inh. ([5]; 20 μM compound): 0 (0 = 0% inhibition) | KRas wild type: % inh. ([5]; 20 μM compound): C (C = 50-75% inhibition) | KRas G12D mutant + SOS: % inh. ([6]; 20 μM compound): B (B = 26-49% inhibition) | KRas G12D mutant: % inh. ([6]; 20 μM compound): C (C = 50-75% inhibition)

CO[C@H]1CC[C@@H](Nc2nc(-c3nccn3C)nn3cc(-c4ccn(C(C)C)n4)c(-c4ccccc4)c23)C1 (racemic) [Compound 18, rac 6-(1-Isopropyl-1H-pyrazol-3-yl)-N-((1R,3S)-3-methoxycyclopentyl)-2-(1-methyl-1H-imidazol-2-yl)-5-phenylpyrrolo[2,1-f][1,2,4]triazin-4-amine hydrochloride]
inhibition at 10 µM [1]: 1 to 24% | % inh of Akt phosphorylation in Panc-1 [2]: D* (85-100% activation) | inhibition [3]: 25 to 49% | inhibition at 20 µM [4]: 0% | KRas wild type + SOS: % inh. ([5]; 20 μM compound): A (A = 1-25% inhibition) | KRas wild type: % inh. ([5]; 20 μM compound): B (B = 26-49% inhibition) | KRas G12D mutant + SOS: % inh. ([6]; 20 μM compound): 0 (0 = 0% inhibition) | KRas G12D mutant: % inh. ([6]; 20 μM compound): A (A = 1-25% inhibition)

Cc1c(-c2ccn(C(C)C)n2)cn2nc(-c3nccn3C)nc(Nc3cn(C(C)C)nn3)c12 [Compound 78, N-(1-Isopropyl-1H-1,2,3-triazol-4-yl)-6-(1-isopropyl-1H-pyrazol-3-yl)-5-methyl-2-(1-methyl-1H-imidazol-2-yl)pyrrolo[2,1-f][1,2,4]triazin-4-amine]
inhibition at 10 µM [1]: 25 to 49% | % inh of Akt phosphorylation in Panc-1 [2]: D* (85-100% activation) | inhibition [3]: 25 to 49% | inhibition at 20 µM [4]: 76 to 100% | KRas wild type + SOS: % inh. ([5]; 20 μM compound): D (D = 76-100% inhibition) | KRas wild type: % inh. ([5]; 20 μM compound): D (D = 76-100% inhibition) | KRas G12D mutant + SOS: % inh. ([6]; 20 μM compound): D (D = 76-100% inhibition) | KRas G12D mutant: % inh. ([6]; 20 μM compound): D (D = 76-100% inhibition)

COc1ncc(Nc2nc(-c3nccn3C)nn3cc(-c4ccn(C(C)C)n4)c(C)c23)cn1 [Compound 80, 6-(1-Isopropyl-1H-pyrazol-3-yl)-N-(2-methoxypyrimidin-5-yl)-5-methyl-2-(1-methyl-1H-imidazol-2-yl)pyrrolo[2,1-f][1,2,4]triazin-4-amine]
inhibition at 10 µM [1]: 0% | % inh of Akt phosphorylation in Panc-1 [2]: D* (85-100% activation) | inhibition [3]: 0% | inhibition at 20 µM [4]: 1 to 25% | KRas wild type + SOS: % inh. ([5]; 20 μM compound): A (A = 1-25% inhibition) | KRas wild type: % inh. ([5]; 20 μM compound): A (A = 1-25% inhibition) | KRas G12D mutant + SOS: % inh. ([6]; 20 μM compound): 0 (0 = 0% inhibition) | KRas G12D mutant: % inh. ([6]; 20 μM compound): A (A = 1-25% inhibition)

COCCO[C@H]1C[C@H](Nc2nc(-c3nccn3C)nn3cc(-c4ccn(C(C)C)n4)c(C)c23)C1 [Compound 92, 6-(1-Isopropyl-1H-pyrazol-3-yl)-N-((1r,3r)-3-(2-methoxyethoxy)cyclobutyl)-5-methyl-2-(1-methyl-1H-imidazol-2-yl)pyrrolo[2,1-f][1,2,4]triazin-4-amine]
inhibition at 10 µM [1]: 1 to 24% | % inh of Akt phosphorylation in Panc-1 [2]: A* (1-25% activation) | inhibition [3]: 50 to 74% | inhibition at 20 µM [4]: 1 to 25% | KRas wild type + SOS: % inh. ([5]; 20 μM compound): 0 (0 = 0% inhibition) | KRas wild type: % inh. ([5]; 20 μM compound): 0 (0 = 0% inhibition) | KRas G12D mutant + SOS: % inh. ([6]; 20 μM compound): A (A = 1-25% inhibition) | KRas G12D mutant: % inh. ([6]; 20 μM compound): A (A = 1-25% inhibition)

Cc1ccn2nc(-c3nccn3C)nc(N)c12.O=C(O)C(F)(F)F [Compound 37, 5-Methyl-2-(1-methyl-1H-imidazol-2-yl)pyrrolo[2,1-f][1,2,4]triazin-4-amine trifluoroacetic acid salt]
inhibition at 10 µM [1]: 0% | % inh of Akt phosphorylation in Panc-1 [2]: 0 (0% inhibition) | inhibition [3]: 0% | inhibition at 20 µM [4]: 0% | KRas wild type + SOS: % inh. ([5]; 20 μM compound): B (B = 26-49% inhibition) | KRas wild type: % inh. ([5]; 20 μM compound): B (B = 26-49% inhibition) | KRas G12D mutant + SOS: % inh. ([6]; 20 μM compound): B (B = 26-49% inhibition) | KRas G12D mutant: % inh. ([6]; 20 μM compound): B (B = 26-49% inhibition)

COc1cccc(-c2cn3nc(-c4nccn4C)nc(N[C@@H]4CC[C@H](OC)C4)c3c2-c2ccccc2)c1C (racemic) [Compound 271, rac 6-(3-Methoxy-2-methylphenyl)-N-((1R,3S)-3-methoxycyclopentyl)-2-(1-methyl-1H-imidazol-2-yl)-5-phenylpyrrolo[2,1-f][1,2,4]triazin-4-amine]
inhibition at 10 µM [1]: 75 to 100% | % inh of Akt phosphorylation in Panc-1 [2]: D (85-100% inhibition) | inhibition [3]: 75 to 100% | inhibition at 20 µM [4]: 26 to 49% | KRas wild type + SOS: % inh. ([5]; at 20 μM): A (A = 1-25% inhibition) | KRas wild type: % inh. ([5]; at 20 μM): B (B = 26-49% inhibition) | KRas G12D mutant + SOS: % inh. ([6]; at 20 μM): B (B = 26-49% inhibition) | KRas G12D mutant: % inh. ([6]; at 20 μM): B (B = 26-49% inhibition)

COc1cccc(-c2cn3nc(-c4nccn4C)nc(N[C@@H]4CC[C@@H](OC)C4)c3c2-c2ccccc2)c1Cl.Cl (racemic) [Compound 34, rac 6-(2-Chloro-3-methoxyphenyl)-N-((1R,3R)-3-methoxycyclopentyl)-2-(1-methyl-1H-imidazol-2-yl)-5-phenylpyrrolo[2,1-f][1,2,4]triazin-4-amine hydrochloride]
inhibition at 10 µM [1]: 1 to 24% | % inh of Akt phosphorylation in Panc-1 [2]: D (85-100% inhibition) | inhibition [3]: 75 to 100% | inhibition at 20 µM [4]: 26 to 49% | KRas wild type + SOS: % inh. ([5]; 20 μM compound): A (A = 1-25% inhibition) | KRas wild type: % inh. ([5]; 20 μM compound): 0 (0 = 0% inhibition) | KRas G12D mutant + SOS: % inh. ([6]; 20 μM compound): 0 (0 = 0% inhibition) | KRas G12D mutant: % inh. ([6]; 20 μM compound): 0 (0 = 0% inhibition)

COCc1csc(Nc2nc(-c3nccn3C)nn3cc(-c4ccn(C(C)C)n4)c(C)c23)n1 [Compound 79, N-(6-(1-Isopropyl-1H-pyrazol-3-yl)-5-methyl-2-(1-methyl-1H-imidazol-2-yl)pyrrolo[2,1-f][1,2,4]triazin-4-yl)-4-(methoxymethyl)thiazol-2-amine]
inhibition at 10 µM [1]: 25 to 49% | % inh of Akt phosphorylation in Panc-1 [2]: D* (85-100% activation) | inhibition [3]: 1 to 24% | inhibition at 20 µM [4]: 76 to 100% | KRas wild type + SOS: % inh. ([5]; 20 μM compound): B (B = 26-49% inhibition) | KRas wild type: % inh. ([5]; 20 μM compound): C (C = 50-75% inhibition) | KRas G12D mutant + SOS: % inh. ([6]; 20 μM compound): C (C = 50-75% inhibition) | KRas G12D mutant: % inh. ([6]; 20 μM compound): D (D = 76-100% inhibition)

COc1ncccc1Nc1nc(-c2nccn2C)nn2cc(-c3ccn(C(C)C)n3)c(C)c12 [Compound 85, 6-(1-Isopropyl-1H-pyrazol-3-yl)-N-(2-methoxypyridin-3-yl)-5-methyl-2-(1-methyl-1H-imidazol-2-yl)pyrrolo[2,1-f][1,2,4]triazin-4-amine]
inhibition at 10 µM [1]: 50 to 74% | % inh of Akt phosphorylation in Panc-1 [2]: D* (85-100% activation) | inhibition [3]: 75 to 100% | inhibition at 20 µM [4]: 0% | KRas wild type + SOS: % inh. ([5]; 20 μM compound): 0 (0 = 0% inhibition) | KRas wild type: % inh. ([5]; 20 μM compound): 0 (0 = 0% inhibition) | KRas G12D mutant + SOS: % inh. ([6]; 20 μM compound): A (A = 1-25% inhibition) | KRas G12D mutant: % inh. ([6]; 20 μM compound): 0 (0 = 0% inhibition)

COc1cccc(-c2cn3nc(-c4nccn4C)nc(N[C@@H]4CC[C@@H](OC)C4)c3c2-c2ccccc2)c1C (racemic) [Compound 270, rac 6-(3-Methoxy-2-methylphenyl)-N-((1R,3R)-3-methoxycyclopentyl)-2-(1-methyl-1H-imidazol-2-yl)-5-phenylpyrrolo[2,1-f][1,2,4]triazin-4-amine]
inhibition at 10 µM [1]: 75 to 100% | % inh of Akt phosphorylation in Panc-1 [2]: D (85-100% inhibition) | inhibition [3]: 75 to 100% | inhibition at 20 µM [4]: 26 to 49% | KRas wild type + SOS: % inh. ([5]; at 20 μM): A (A = 1-25% inhibition) | KRas wild type: % inh. ([5]; at 20 μM): B (B = 26-49% inhibition) | KRas G12D mutant + SOS: % inh. ([6]; at 20 μM): B (B = 26-49% inhibition) | KRas G12D mutant: % inh. ([6]; at 20 μM): B (B = 26-49% inhibition)

Cc1c(-c2ccn(C(C)C)n2)cn2nc(-c3nccn3C)nc(Nc3nnc(C4CC4)[nH]3)c12 [Compound 81, N-(5-Cyclopropyl-4H-1,2,4-triazol-3-yl)-6-(1-isopropyl-1H-pyrazol-3-yl)-5-methyl-2-(1-methyl-1H-imidazol-2-yl)pyrrolo[2,1-f][1,2,4]triazin-4-amine]
inhibition at 10 µM [1]: 50 to 74% | % inh of Akt phosphorylation in Panc-1 [2]: D* (85-100% activation) | inhibition [3]: 75 to 100% | inhibition at 20 µM [4]: 76 to 100% | KRas wild type + SOS: % inh. ([5]; 20 μM compound): B (B = 26-49% inhibition) | KRas wild type: % inh. ([5]; 20 μM compound): C (C = 50-75% inhibition) | KRas G12D mutant + SOS: % inh. ([6]; 20 μM compound): C (C = 50-75% inhibition) | KRas G12D mutant: % inh. ([6]; 20 μM compound): D (D = 76-100% inhibition)

Cc1c(-c2ccn(C(C)C)n2)cn2nc(-c3nccn3C)nc(Nc3cnn(C(C)C)n3)c12 [Compound 77, 6-(1-Isopropyl-1H-pyrazol-3-yl)-N-(2-isopropyl-2H-1,2,3-triazol-4-yl)-5-methyl-2-(1-methyl-1H-imidazol-2-yl)pyrrolo[2,1-f][1,2,4]triazin-4-amine]
inhibition at 10 µM [1]: 25 to 49% | % inh of Akt phosphorylation in Panc-1 [2]: D* (85-100% activation) | inhibition [3]: 1 to 24% | inhibition at 20 µM [4]: 76 to 100% | KRas wild type + SOS: % inh. ([5]; 20 μM compound): C (C = 50-75% inhibition) | KRas wild type: % inh. ([5]; 20 μM compound): C (C = 50-75% inhibition) | KRas G12D mutant + SOS: % inh. ([6]; 20 μM compound): B (B = 26-49% inhibition) | KRas G12D mutant: % inh. ([6]; 20 μM compound): D (D = 76-100% inhibition)
